Results taken from patent publication US6737383B1, “Herbicidal oxadiazolidines” (priority 1999, dated 2004).

Legend:
wheat = experiment: Test B pre/postemergence wheat; format: in vivo, Triticum aestivum; details: for Plant response rating, Wheat: Rate 250 g/ha
How it was run: (§1)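 Response is a visual 0-to-10 score relative to untreated plants, where 0 means no effect and 10 means complete control, taken twelve to sixteen days after application. Treatments went onto soil at planting and onto foliage of 1- to 4-leaf plants, using a surfactant-containing non-phytotoxic solvent.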

giant foxtail = experiment: Test B pre/postemergence giant foxtail; format: in vivo, Setaria faberii
How it was run: as §1

soybean = experiment: Test B pre/postemergence soybean; format: in vivo, Glycine max
How it was run: as §1

crabgrass = experiment: Test B pre/postemergence crabgrass; format: in vivo, Digitaria sanguinalis
How it was run: as §1

surinam grass = experiment: Test B pre/postemergence surinam grass; format: in vivo, Brachiaria decumbens
How it was run: as §1

purple nutsedge = experiment: Test B pre/postemergence purple nutsedge; format: in vivo, Cyperus rotundus
How it was run: as §1

velvetleaf = experiment: Test B pre/postemergence velvetleaf; format: in vivo, Abutilon theophrasti; details: for Plant response rating, Velvetleaf: Rate 250 g/ha
How it was run: as §1

morningglory = experiment: Test B pre/postemergence morningglory; format: in vivo, Ipomoea hederacea
How it was run: as §1

duck salad = experiment: Test B flood test duck salad; format: in vivo, Heteranthera limosa
How it was run: (§2)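 Read-out is a visual response score from 0 (no effect) to 10 (complete control), assigned by comparison with untreated controls. Treatment was applied at the 2-leaf stage, and plants stayed in the greenhouse for twelve to sixteen days before scoring.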

wild oat = experiment: Test B pre/postemergence wild oat; format: in vivo, Avena fatua; details: for Plant response rating, Wild oats: Rate 250 g/ha
How it was run: as §1

rice = experiment: Test B flood test rice; format: in vivo, Oryza sativa
How it was run: as §2

bedstraw = experiment: Test B pre/postemergence bedstraw; format: in vivo, Galium aparine
How it was run: as §1

corn = experiment: Test B pre/postemergence corn; format: in vivo, Zea mays
How it was run: as §1

blackgrass = experiment: Test B pre/postemergence blackgrass; format: in vivo, Alopecurus myosuroides
How it was run: as §1

smallflower flatsedge = experiment: Test B flood test smallflower flatsedge; format: in vivo, Cyperus difformis
How it was run: as §2

rape = experiment: Test B pre/postemergence rape; format: in vivo, Brassica napus
How it was run: as §1

[1] = Postemergence, Rate 125 g/ha, scale of 0 to 10 where 0 is no effect and 10 is complete control
[2] = Preemergence, Rate 62 g/ha, scale 0 to 10 (0 no effect, 10 complete control)
[3] = Preemergence, Rate 125 g/ha, 0 is no effect, 10 is complete control
[4] = Preemergence, scale of 0 to 10 where 0 is no effect and 10 is complete control
[5] = Preemergence, Rate 500 g/ha, scale 0 to 10 (0 no effect, 10 complete control)
[6] = Rate 62 g/ha, Postemergence, scale of 0 to 10 where 0 is no effect and 10 is complete control
[7] = Postemergence, scale 0 to 10, 0 is no effect, 10 is complete control
[8] = Rate 500 g/ha, Postemergence, scale 0 to 10, 0 no effect, 10 complete control
[9] = Postemergence, Rate 250 g/ha, scale 0 to 10, 0 no effect, 10 complete control
[10] = Preemergence, Rate 125 g/ha, scale 0 to 10 (0 no effect, 10 complete control)
[11] = Preemergence, Rate 250 g/ha, scale of 0 to 10 where 0 is no effect and 10 is complete control
[12] = Postemergence, Rate 62 g/ha, scale 0 to 10, 0 is no effect, 10 is complete control
[13] = Rate 125 g/ha, Postemergence, scale 0 to 10, 0 no effect, 10 complete control
[14] = Postemergence (flood test species), Rate 125 g/ha, scale of 0 to 10 where 0 is no effect and 10 is complete control
[15] = Rate 62 g/ha, Postemergence section, flood test species, scale of 0 to 10 where 0 is no effect and 10 is complete control
[16] = Rate 500 g/ha, listed under Postemergence (flood test species), scale 0 to 10, 0 no effect, 10 complete control
[17] = Rate 250 g/ha, Postemergence (flood test), scale 0 to 10, 0 is no effect, 10 is complete control

CC(C)N(C(=O)n1oc(=O)n(Cc2ccccc2)c1=O)c1ccc(Cl)cc1 [Compound 106]
10: Plant response rating, Giant foxtail (giant foxtail; [11]) | Giant foxtail plant response rating (giant foxtail; [5]) | Morningglory plant response rating (morningglory; [8])
5: Plant response rating, Giant foxtail (giant foxtail; [10])
1: Plant response rating, Soybean (soybean; Rate 250 g/ha, Postemergence, scale 0 to 10, 0 is no effect, 10 is complete control) | Soybean plant response rating (soybean; [8]) | Blackgrass plant response rating (blackgrass; [9])
0: Wheat plant response rating (wheat; [1]) | Wheat plant response rating (wheat; [2]) | Wheat plant response rating (0 to 10 scale) (wheat; [3]) | Plant response rating, Wheat (wheat; [4]) | Wheat plant response rating (wheat; [5]) | Wheat plant response rating (wheat; [6]) | Plant response rating, Wheat (wheat; [7]) | Wheat plant response rating (wheat; [8]) | Giant foxtail plant response rating (giant foxtail; [6]) | Soybean plant response rating (soybean; [1]) | Soybean plant response rating (soybean; [2]) | Plant response rating, Soybean (soybean; [10]) | Plant response rating, Soybean (soybean; [11]) | Soybean plant response rating (soybean; [5]) | Soybean plant response rating (soybean; [6]) | Crabgrass plant response rating (crabgrass; [1]) | Crabgrass plant response rating (crabgrass; [2]) | Plant response rating, Crabgrass (crabgrass; [10]) | Crabgrass plant response rating (crabgrass; [6]) | B. signalgrass plant response rating (surinam grass; [12]) | B. signalgrass plant response rating (surinam grass; [9]) | B. signalgrass plant response rating (surinam grass; [2]) | Plant response rating, B. signalgrass (surinam grass; [10]) | Plant response rating, B. signalgrass (surinam grass; [11]) | B. signalgrass plant response rating (surinam grass; [13]) | B. signalgrass plant response rating (surinam grass; Rate 500 g/ha, Postemergence, scale of 0 to 10 where 0 is no effect and 10 is complete control) | Nutsedge plant response rating (purple nutsedge; [1]) | Nutsedge plant response rating (purple nutsedge; [9]) | Nutsedge plant response rating (purple nutsedge; [2]) | Plant response rating, Nutsedge (purple nutsedge; [10]) | Plant response rating, Nutsedge (purple nutsedge; [11]) | Nutsedge plant response rating (purple nutsedge; [5]) | Nutsedge plant response rating (purple nutsedge; [6]) | Nutsedge plant response rating (purple nutsedge; [8]) | Velvetleaf plant response rating (velvetleaf; [1]) | Velvetleaf plant response rating (velvetleaf; [2]) | Velvetleaf plant response rating (0 to 10 scale) (velvetleaf; [3]) | Plant response rating, Velvetleaf (velvetleaf; [4]) | Velvetleaf plant response rating (velvetleaf; [5]) | Velvetleaf plant response rating (velvetleaf; [6]) | Morningglory plant response rating (morningglory; [2]) | Plant response rating, Morningglory (morningglory; [10]) | Plant response rating, Morningglory (morningglory; [11]) | Morningglory plant response rating (morningglory; [5]) | Ducksalad plant response rating (duck salad; [14]) | Ducksalad plant response rating (duck salad; [15]) | Ducksalad plant response rating (duck salad; [16]) | Ducksalad plant response rating (duck salad; flood test, listed under Postemergence, Rate 250 g/ha, scale 0 to 10, 0 no effect, 10 complete control) | Wild oats plant response rating (wild oat; [1]) | Wild oats plant response rating (wild oat; [2]) | Wild oats plant response rating (0 to 10 scale) (wild oat; [3]) | Plant response rating, Wild oats (wild oat; [4]) | Wild oats plant response rating (wild oat; [5]) | Wild oats plant response rating (wild oat; [6]) | Plant response rating, Wild oats (wild oat; [7]) | Wild oats plant response rating (wild oat; [8]) | Rice plant response rating (rice; [14]) | Rice plant response rating (rice; [15]) | Plant response rating, Rice (rice; [17]) | Rice plant response rating (rice; [16]) | Bedstraw plant response rating (bedstraw; [12]) | Bedstraw plant response rating (bedstraw; [2]) | Plant response rating, Bedstraw (bedstraw; [10]) | Bedstraw plant response rating (bedstraw; [13]) | Corn plant response rating (corn; [1]) | Corn plant response rating (corn; [9]) | Corn plant response rating (corn; [2]) | Plant response rating, Corn (corn; [10]) | Plant response rating, Corn (corn; [11]) | Corn plant response rating (corn; [5]) | Corn plant response rating (corn; [6]) | Corn plant response rating (corn; [8]) | Blackgrass plant response rating (blackgrass; [1]) | Blackgrass plant response rating (blackgrass; [2]) | Plant response rating, Blackgrass (blackgrass; [10]) | Plant response rating, Blackgrass (blackgrass; [11]) | Blackgrass plant response rating (blackgrass; [6]) | S. Flatsedge plant response rating (smallflower flatsedge; [14]) | S. Flatsedge plant response rating (smallflower flatsedge; [15]) | Plant response rating, S. Flatsedge (smallflower flatsedge; [17]) | S. Flatsedge plant response rating (smallflower flatsedge; [16]) | Rape plant response rating (rape; [1]) | Rape plant response rating (rape; [9]) | Rape plant response rating (rape; [2]) | Plant response rating, Rape (rape; [10]) | Plant response rating, Rape (rape; [11]) | Rape plant response rating (rape; [6]) | Rape plant response rating (rape; [8])
8: Plant response rating, Crabgrass (crabgrass; [11]) | Crabgrass plant response rating (crabgrass; [5]) | Morningglory plant response rating (morningglory; [9])
4: Bedstraw plant response rating (bedstraw; [5])
7: Morningglory plant response rating (morningglory; [1]) | Bedstraw plant response rating (bedstraw; [8])
3: Giant foxtail plant response rating (giant foxtail; [9]) | Giant foxtail plant response rating (giant foxtail; [8]) | Crabgrass plant response rating (crabgrass; [9]) | Bedstraw plant response rating (bedstraw; [9]) | Plant response rating, Bedstraw (bedstraw; [11]) | Blackgrass plant response rating (blackgrass; [8])
2: Giant foxtail plant response rating (giant foxtail; [1]) | Giant foxtail plant response rating (giant foxtail; [2]) | B. signalgrass plant response rating (surinam grass; [5]) | Plant response rating, Velvetleaf (velvetleaf; [7]) | Velvetleaf plant response rating (velvetleaf; [8]) | Blackgrass plant response rating (blackgrass; [5]) | Rape plant response rating (rape; [5])
6: Crabgrass plant response rating (crabgrass; [8]) | Morningglory plant response rating (morningglory; [6])
